The values that follow come from patent US12239624B2, “Glyceryl tris (beta-hydroxybutyrate) and neuronal transient ischemic attacks” (NeuroEnergy Ventures, Inc., priority 2019, dated 2025).

For the data set the following is noted: in vivo.

As for `CC(O)CC(=O)OCC(COC(=O)CC(C)O)OC(=O)CC(C)O` (stereo not drawn) [GTβHB, Glyceryl Tris (Beta-HydroxyButyrate)], the “time for beta-hydroxybutyrate and acetoacetate from GTβHB to return to pre-administration levels” value was ≤ 24 h. For the setting “po”, the “period within which GTβHB is cleared by the body” value is ≤ 24 h.
